Data reported in patent publication US12398121B2 (Nuvation Bio Inc., priority 2018, dated 2025).
Where two headings read alike, the source gives them in different places.

How the values were obtained:
HT-29 cells = test: Cell proliferation assay (CellTiter Glo), HT-29; format: cell-based; conditions: Homo sapiens, HT-29, 72 h, read-out: HT-29 IC50
Method: IC50 values were calculated and graphed using the model “log(inhibitor) vs. response—Variable slope” included in GraphPad Prism 5 (San Diego, CA). The Ki values were further calculated using the equation below where [L] was the radioligand concentration (1 nM) using in this study. Kd value was 0.332 nM. Ki=IC50/(1+[L]/Kd) c. AR transactivation: Human AR cloned into a CMV vector backbone was used for the transactivation study. HEK-293 cells were plated at 80,000 cells per well of a 24 well plate in DME+5% csFBS. Twenty four hours later, the cells were transfected using Lipofectamine (Invitrogen, Carlsbad, CA) with 0.25 μg GRE-LUC, 0.01 μg CMV-LUC (renilla luciferase) and 25 ng of the AR in OPTIMEM medium. The cells were treated 24 hrs after transfection with various ligands (10^−12 to 10^−5 M final concentrations) and luciferase assay were performed 48 hours after transfection. Firefly values were normalized to renilla luciferase values and the values were represented as relative light units (RLU). Agonist and antagonist assays for the test article were performed in the absence and in the combination with 0.1 nM R1881, respectively. Data were represented as EC50 (for agonists) and IC50 (for antagonists) obtained from four parameter logistics curve. Cell culture and proliferation assays: LNCaP, PC-3, 22RV1, MCF-7, HT-29, and HCT-116 cells were procured from American Type Culture Collection (ATCC). Cells were cultured in medium recommended by the ATCC. Cell culture medium was obtained from Fisher scientific (Waltham, MA) and serum was obtained from Hyclone (San Angelo, TX).
Cells were plated at varying density in the respective growth medium in 96 well plates. 24 hr later, cells were treated, in triplicate or quadruplicate, with test articles prepared in a range of concentrations by series dilution of DMSO stock solutions in growth medium and incubated for three to seven days. The number of viable 22RV1 and HT-29 cells was measured using CellTiter Glo assay (CTG, Promega, Madison, WI) after three days of treatment. The other types of cancer cells were re-treated at three or four days and the number of viable cells was measured using CTG assay after a total treatment time of six or seven days. Cell viability data were plotted using GraphPad Prism (GraphPad Software, Inc., San Diego, CA). In addition, a nonlinear regression model with a sigmoidal dose response and variable slope within GraphPad Prism was used to calculate the IC50 value of individual test articles. Additional cell proliferation assays: Other cancer cell lines are tested in a cell proliferation assay. For example, SK-OV-3 or OVCAR3 ovarian cancer cells are tested. Cells are cultured in medium recommended by the supplier (e.g., ATCC or JCRB Cell Bank), at 37° C. in a 5% CO2 environment. For the proliferation assay, cells are plated in the growth medium in 96 well plates. Seeding density is adjusted according to the cell type. 24 hr later, cells are treated, in triplicate or quadruplicate, with test articles prepared in a range of concentrations by series dilution of DMSO stock solutions in growth medium, and typically incubated for three to seven days, with test article-containing medium replaced after three or four days. The number of viable cells is measured using CellTiter Glo assay (CTG, Promega, Madison, WI) or similar. Cell viability data are plotted using GraphPad Prism (GraphPad Software, Inc., San Diego, CA). In addition, a nonlinear regression model with a sigmoidal dose response and variable slope within GraphPad Prism is used to calculate the IC50 value of individual test articles. Similarly, HEK-293 and HeLa calls can also be tested by methods known in the art. • f. Nuclear translocation: LNCaP cells are plated on coverslips in 24 well plates in growth medium. Twenty-four hours after plating, medium is changed to RPMI+1% csFBS and the cells are maintained in this medium for two days. Medium is replaced again and the cells are treated. […]

Human recombinant PARP1 = Human recombinant PARP1 (Homo sapiens, UniProt P09874); test: RBC HotSpot PARP1 radioisotope-based filter binding assay; format: biochemical
Human recombinant PARP1, sequence (P09874 whole entry): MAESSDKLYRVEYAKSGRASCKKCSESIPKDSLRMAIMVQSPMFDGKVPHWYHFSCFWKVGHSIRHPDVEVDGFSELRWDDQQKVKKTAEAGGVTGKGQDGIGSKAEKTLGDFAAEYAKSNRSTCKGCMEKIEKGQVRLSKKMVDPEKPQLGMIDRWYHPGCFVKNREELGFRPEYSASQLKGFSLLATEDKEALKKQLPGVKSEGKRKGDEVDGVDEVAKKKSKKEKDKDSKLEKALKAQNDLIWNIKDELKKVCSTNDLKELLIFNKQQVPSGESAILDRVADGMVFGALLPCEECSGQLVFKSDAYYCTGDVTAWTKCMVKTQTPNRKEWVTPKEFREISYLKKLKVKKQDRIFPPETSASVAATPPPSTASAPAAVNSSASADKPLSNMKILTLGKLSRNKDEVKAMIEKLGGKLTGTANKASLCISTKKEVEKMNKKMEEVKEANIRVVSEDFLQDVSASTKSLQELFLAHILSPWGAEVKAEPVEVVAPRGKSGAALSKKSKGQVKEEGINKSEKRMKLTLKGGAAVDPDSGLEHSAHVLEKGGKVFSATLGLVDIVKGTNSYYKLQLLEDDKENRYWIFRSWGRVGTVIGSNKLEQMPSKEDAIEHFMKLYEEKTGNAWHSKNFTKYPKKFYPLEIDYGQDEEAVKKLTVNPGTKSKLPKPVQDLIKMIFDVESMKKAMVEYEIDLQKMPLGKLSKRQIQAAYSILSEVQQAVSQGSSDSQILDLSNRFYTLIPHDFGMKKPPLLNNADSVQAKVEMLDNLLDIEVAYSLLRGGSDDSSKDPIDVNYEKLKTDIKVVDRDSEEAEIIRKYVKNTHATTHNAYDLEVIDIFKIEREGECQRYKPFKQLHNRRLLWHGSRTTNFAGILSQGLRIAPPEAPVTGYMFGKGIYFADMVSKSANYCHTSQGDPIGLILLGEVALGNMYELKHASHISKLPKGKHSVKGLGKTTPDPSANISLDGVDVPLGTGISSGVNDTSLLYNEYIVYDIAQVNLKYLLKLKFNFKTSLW
Method: The following methods are for evaluating the in vitro biology properties of the test articles. • a. RBC HotSpot Poly(ADP-ribose) Polymerases 1 (PARP1) and Poly(ADP-ribose) Polymerases 2 (PARP2) Assays: The assay principle is radioisotope-based filter binding assay where incorporation of radioisotope-labeled NAD^+ into the substrate captured on filter is detected after washout free NAD^+. Data were analyzed using Excel and GraphPad Prism software for IC50 curve fits. Each assay was conducted with PJ34 as a positive control. • i. PARP1 assay: Human recombinant PARP1 at a final concentration of 2.5 nM was combined with histone H4 (20 μM) and test articles at various concentrations in reaction buffer (50 mM Tris-HCL, pH 8.0, 50 mM NaCl, 10 mM MgCl2, 1 mM DTT, 1% DMSO, and 20 μg/mL activated DNA). The solution was inoculated for 20 min at room temperature and the reaction initiated by adding [adenylate-^32P]-Nicotinamide Adenine Dinucleotide, ^32P-NAD^+ at a final concentration of 10 μM. After incubation for 2 hour at room temperature, the reaction mixture was filtered and washed with 0.75% phosphoric acid for radioactivity detection. • ii. PARP2 assay: Human recombinant PARP2 at a final concentration of 2.5 nM was combined with histone H3 (20 μM) and test articles at various concentrations in reaction buffer (50 mM Tris-HCL, pH 8.0, 50 mM NaCl, 10 mM MgCl2, 1 mM DTT, 1% DMSO, and 20 μg/mL activated DNA). The solution was inoculated for 20 min at room temperature and the reaction was initiated by adding [adenylate-^32P]-Nicotinamide Adenine Dinucleotide, ^32P-NAD^+ at a final concentration of 10 μM. After incubation for 2 hour at room temperature, the reaction mixture was filtered and washed with 0.75% phosphoric acid for radioactivity detection. • b. AR binding assay: AR in LNCaP cytosol was used for determining the binding affinity of test articles and the reference compound—progesterone (Sigma, Cat: E2785, St. Louis, MO). IC50s were determined using 8 concentrations/compound. Cytosol was plated at 200 μg/well (100 μL) into a 96-well conical polypropylene plate (Agilent, Cat: 5042-1385, Santa Clara, CA) and mixed with 3 μL of test compound. After adding 100 μL of ^3H-methyltrienolone (PerkinElmer, Cat: NET590250UC, San Jose, CA), the plate was sealed and shaken at 300 rpm at 4° C. for 24 hours. Post incubation, 100 μL of radioligand adsorption buffer containing 10 mM Tris-HCl, pH 7.4; 1.5 mM EDTA; 1 mM DTT; 0.25% charcoal; 0.0025% dextran was added to individual well. Plate was shaken for 15 min at 4′C followed by centrifugation at 3000 rpm for 30 min at 4° C. 150 μL of supernatant was transferred into scint-tube (PerkinElmer, Cat: 6000192) and mixed with 2 mL of Ultima Gold Cocktail (PerkinElmer, Cat: 6013329). Radioactivity was counted using a TriCarb 2910 TR scintillation counter (PerkinElmer). Inhibition of the radioactivity by test articles were calculated using the equation below: % Inhibition=(1−(Assay well−Average_LC)/(Average_HC−Average_LC))×100%.

[1] = cell growth inhibition, three days of treatment
[2] = 2.5 nM enzyme, histone H4, 10 μM 32P-NAD+, read-out: PARP1 IC50

| SMILES | IC50 (HT-29 cells) | IC50 (Human recombinant PARP1) | IC50 (HT-29 cells; [1]) | IC50 (Human recombinant PARP1; [2]) |
| --- | --- | --- | --- | --- |
| CC(O)(CS(=O)(=O)c1ccc(NCCn2cc(CN3CCN(C(=O)c4cc(Cc5n[nH]c(=O)c6ccccc56)ccc4F)CC3)nn2)cc1)C(=O)Nc1ccc(C#N)c(C(F)(F)F)c1 (stereo in doubt) [Compound 1.97, (S)-N-(4-cyano-3-(trifluoromethyl)phenyl)-3-(4-(2-(4-((4-(2-fluoro-5-((4-oxo-3,4-dihydrophthalazin-1-yl)methyl)benzoyl)piperazin-1-yl)methyl)-1H-1,2,3-triazol-1-yl)ethylamino)phenylsulfonyl)-2-hydroxy-2-methylpropanamide] | > 30000 nM | 2 nM | – | – |
| C[C@](O)(CS(=O)(=O)c1ccc(NCCCCCC(=O)N2CCN(C(=O)c3cc(Cc4n[nH]c(=O)c5ccccc45)ccc3F)CC2)cc1)C(=O)Nc1ccc(C#N)c(C(F)(F)F)c1 [Compound 1.68, (R)-N-(4-cyano-3-(trifluoromethyl)phenyl)-3-(4-(6-(4-(2-fluoro-5-((4-oxo-3,4-dihydrophthalazin-1-yl)methyl)benzoyl)piperazin-1-yl)-6-oxohexylamino)phenylsulfonyl)-2-hydroxy-2-methylpropanamide] | > 10000 nM | 0.3 nM | – | – |
| O=C(c1ccc(OCCN2CCN(C(=O)c3cc(Cc4n[nH]c(=O)c5ccccc45)ccc3F)CC2)cc1)c1c(-c2ccc(O)cc2)sc2cc(O)ccc12 [Compound 2.13, 4-(4-fluoro-3-(4-(2-(4-(6-hydroxy-2-(4-hydroxyphenyl)benzo[b]thiophene-3-carbonyl)phenoxy)ethyl)piperazine-1-carbonyl)benzyl)phthalazin-1(2H)-one] | – | – | 6000 nM | 3.3 nM |
| CC1(C)C(=O)N(c2ccc(C#N)c(C(F)(F)F)c2)C(=S)N1c1ccc(C(=O)NCCCCCCNCc2ccc(-c3[nH]c4cc(F)cc5c4c3CCNC5=O)cc2)c(F)c1 [Compound 1.5, 4-(3-(4-cyano-3-(trifluoromethyl)phenyl)-5,5-dimethyl-4-oxo-2-thioxoimidazolidin-1-yl)-2-fluoro-N-(6-((4-(8-fluoro-1-oxo-2,3,4,6-tetrahydro-1H-azepino[5,4,3-cd]indol-5-yl)benzyl)amino)hexyl)benzamide] | 5000 nM | 23 nM | – | – |
| CCC(=C(c1ccc(O)cc1)c1ccc(OCCN2CCN(C(=O)c3cc(Cc4n[nH]c(=O)c5ccccc45)ccc3F)CC2)cc1)c1ccccc1 [Compound 2.14, 4-(4-fluoro-3-(4-(2-(4-(1-(4-hydroxyphenyl)-2-phenylbut-1-enyl)phenoxy)ethyl)piperazine-1-carbonyl)benzyl)pthalazin-1(2H)-one] | – | – | > 30000 nM | 274 nM |
| CC1(C)C(=O)N(c2ccc(C#N)c(C(F)(F)F)c2)C(=S)N1c1ccc(C(=O)NCCCCCC(=O)N2CCN(C(=O)c3cc(Cc4n[nH]c(=O)c5ccccc45)ccc3F)CC2)c(F)c1 [Compound 1.1, 4-(3-(4-cyano-3-(trifluoromethyl)phenyl)-5,5-dimethyl-4-oxo-2-thioxoimidazolidin-1-yl)-2-fluoro-N-(6-(4-(2-fluoro-5-((4-oxo-3,4-dihydrophthalazin-1-yl)methyl)benzoyl)piperazin-1-yl)-6-oxohexyl)benzamide] | 300 nM | 2 nM | – | – |
| C[C@]12CCC(=O)C[C@@H]1CC[C@@H]1[C@@H]2CC[C@]2(C)[C@@H](OCCCCCC(=O)N3CCN(C(=O)c4cc(Cc5n[nH]c(=O)c6ccccc56)ccc4F)CC3)CC[C@@H]12 [Compound 1.2, 4-(3-(4-(6-(((5S,8R,9S,10S,13S,14S,17S)-10,13-dimethyl-3-oxohexadecahydro-1H-cyclopenta[a]phenanthren-17-yl)oxy)hexanoyl)piperazine-1-carbonyl)-4-fluorobenzyl)phthalazin-1(2H)-one] | > 10000 nM | – | – | 3 nM |
| C[C@]12CCC(=O)C[C@@H]1CC[C@@H]1[C@@H]2CC[C@]2(C)[C@@H](OCC(=O)N3CCN(C(=O)c4cc(Cc5n[nH]c(=O)c6ccccc56)ccc4F)CC3)CC[C@@H]12 [Compound 1.110, 4-(3-(4-(2-((5S,8R,9S,10S,13S,14S,17S)-10,13-dimethyl-3-oxohexadecahydro-1H-cyclopenta[a]phenanthren-17-yloxy)acetyl)piperazine-1-carbonyl)-4-fluorobenzyl)phthalazin-1(2H)-one] | – | – | 9500 nM | 0.7 nM |
| C[C@]12CCC(=O)C[C@@H]1CC[C@@H]1[C@@H]2CC[C@]2(C)[C@@H](OCCOCC(=O)N3CCN(C(=O)c4cc(Cc5n[nH]c(=O)c6ccccc56)ccc4F)CC3)CC[C@@H]12 [Compound 1.104, 4-(3-(4-(2-(2-((5S,8R,9S,10S,13S,14S,17S)-10,13-dimethyl-3-oxohexadeca hydro-1H-cyclopenta[a]phenanthren-17-yloxy)ethoxy)acetyl)piperazine-1-carbonyl)-4-fluorobenzyl)phthalazin-1(2H)-one] | – | – | 9300 nM | 1.2 nM |
| C[C@](O)(COc1ccc(NCCCCCC(=O)N2CCN(C(=O)c3cc(Cc4n[nH]c(=O)c5ccccc45)ccc3F)CC2)cc1)C(=O)Nc1ccc(C#N)c(C(F)(F)F)c1 [Compound 1.83, (S)-N-(4-cyano-3-(trifluoromethyl)phenyl)-3-(4-(6-(4-(2-fluoro-5-((4-oxo-3,4-dihydrophthalazin-1-yl)methyl)benzoyl)piperazin-1-yl)-6-oxohexylamino)phenoxy)-2-hydroxy-2-methylpropanamide] | > 10000 nM | – | – | 0.7 nM |
